≈ marks a conversion by molar mass, not a printed value. Counter-ions that a name gives are not always drawn.
Target: NDM-1 (Klebsiella pneumoniae, UniProt C7C422)
Test: metallo-β-lactamase inhibition assay (nitrocefin)
Format: biochemical
Conditions: 1.5 nM NDM-1, 100 μM nitrocefin, 37° C., pH 7.5
Protocol: Compounds of the invention were tested in a metallo-β-lactamase inhibition assay to investigate mechanism of action of the compounds. Results are reported as the concentration of test article required to inhibit enzyme activity by 50% (IC50).
Inhibition of metallo-β-lactamase enzyme function was performed at 37° C. in buffer at pH 7.5 (50 mM HEPES, 150 mM NaCl, 0.1 mM ZnSO4, 20 μg/mL PEG4000), containing 1.5 nM NDM-1, 100 μM nitrocefin, and a range of concentrations of compound. Absorbance at 490 nm was measured using a BMG LABTECH FLUOstar Omega microplate reader every minute for 30 minutes. IC50S were determined from the average increase in OD per minute versus the Log 10 concentration of compound using GraphPad Prism.

NDM-1, sequence (C7C422 whole entry, looked up, species assumed): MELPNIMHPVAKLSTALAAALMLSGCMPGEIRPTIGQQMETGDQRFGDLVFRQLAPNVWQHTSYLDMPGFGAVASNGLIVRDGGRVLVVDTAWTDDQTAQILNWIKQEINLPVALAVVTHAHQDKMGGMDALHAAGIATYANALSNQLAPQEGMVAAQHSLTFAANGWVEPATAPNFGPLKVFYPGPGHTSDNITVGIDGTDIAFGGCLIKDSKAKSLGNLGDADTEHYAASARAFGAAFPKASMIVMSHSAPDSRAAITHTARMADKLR

Going from `Nc1ncc(-c2ccn(S(N)(=O)=O)c2C(=O)O)cn1` [Example 25, 3-(2-Aminopyrimidin-5-yl)-1-sulfamoyl-pyrrole-2-carboxylic acid, sodium salt] to `Nc1nc2ccc(-c3ccn(S(N)(=O)=O)c3C(=O)O)cn2n1` [Example 47, 3-(2-Amino-[1,2,4]triazolo[1,5-a]pyridin-6-yl)-1-sulfamoyl-pyrrole-2-carboxylic acid hydrochloride], the IC50 falls from 1360 nM to 656 nM (2.1-fold). The second is the more potent here.

Compared with `NCCC(=O)N1CCC(c2ccn(S(N)(=O)=O)c2C(=O)O)CC1` [Example 63, 3-[1-(3-Aminopropanoyl)-4-piperidyl]-1-sulfamoyl-pyrrole-2-carboxylic acid], `NS(=O)(=O)n1ccc(-c2cccc(C3CCNCC3)c2)c1C(=O)O` [Example 40, 3-[3-(4-Piperidyl)phenyl]-1-sulfamoyl-pyrrole-2-carboxylic acid hydrochloride] is 3.2-fold lower in IC50: 834 nM for the first, 264 nM for the second.

Going from `NCCCNC(=O)c1ccc(-c2ccn(S(N)(=O)=O)c2C(=O)O)cc1` [Example 51, 3-[4-(3-Aminopropylcarbamoyl)phenyl]-1-sulfamoyl-pyrrole-2-carboxylic acid hydrochloride] to `NC(=O)c1ccc(-c2ccn(S(N)(=O)=O)c2C(=O)O)cc1` [Example 26, 3-(4-Carbamoylphenyl)-1-sulfamoyl-pyrrole-2-carboxylic acid], the IC50 rises from 263 nM to 512 nM (1.9-fold).

Going from `CC(=O)Nc1ccc(-c2ccn(S(N)(=O)=O)c2C(=O)O)cn1` [Example 24, 3-(6-Acetamido-3-pyridyl)-1-sulfamoyl-pyrrole-2-carboxylic acid] to `Nc1nc2c(-c3ccn(S(N)(=O)=O)c3C(=O)O)cccc2s1` [Example 53, 3-(2-Amino-1,3-benzothiazol-4-yl)-1-sulfamoyl-pyrrole-2-carboxylic acid hydrochloride], the IC50 falls from 608 nM to 314 nM (1.9-fold). The second is the more potent here.

Test system: not listed separately
Test: Cytotoxicity Assay (CellTiter-Glo)
Format: cell-based
Conditions: human, Hep G2 cells (ATCC HB-8065); 24 h exposure, cell viability; read-out: HepG2 CC50
Protocol: Cytotoxicity was evaluated in human Hep G2 cells (ATCC HB-8065) seeded at a density of 2×10^5 cells per well and incubated for 24 h at 37° C., 5% CO2. Cells were exposed to a doubling dilution series of test article. After 24 h exposure, the viability of the cells was determined using CellTiter-Glo® (Promega, Wis., USA) according to the manufacturer's instructions. Results are reported as the concentration of test article required to reduce cell viability by 50% (CC50).

First: Cc1cn(S(N)(=O)=O)c(C(=O)O)c1-c1ccccc1 [Example 75, 4-Methyl-3-phenyl-1-sulfamoyl-1H-pyrrole-2-carboxylic acid]
Second: CCc1cn(S(N)(=O)=O)c(C(=O)O)c1-c1ccccc1 [Example 74, 4-Ethyl-3-phenyl-1-sulfamoyl-pyrrole-2-carboxylic acid]
The CC50 at 24 h of the first is higher: over 256 µg/mL for the first, 237 µg/mL (≈ 805 µM) for the second.

`NS(=O)(=O)n1ccc(-c2ccc(-c3ccncc3)cc2)c1C(=O)O` [Example 13, 3-[4-(Pyridin-4-yl)phenyl]-1-sulfamoyl-1H-pyrrole-2-carboxylic acid] and `N#Cc1ccc(-c2ccn(S(N)(=O)=O)c2C(=O)O)cc1` [Example 15, 3-(4-Cyanophenyl)-1-sulfamoyl-1H-pyrrole-2-carboxylic acid] cannot be ordered by CC50 at 24 h: over 256 µg/mL for the first, over 256 µg/mL for the second.

`NS(=O)(=O)n1ccc(Cc2ccccc2)c1C(=O)O` [Example 54, 3-Benzyl-1-sulfamoyl-1H-pyrrole-2-carboxylic acid] and `NS(=O)(=O)n1ccc(-c2ccccc2)c1C(=O)O` [Example 3, 3-Phenyl-1-sulfamoyl-1H-pyrrole-2-carboxylic acid, sodium salt] cannot be ordered by CC50 at 24 h: 248 µg/mL (≈ 884 µM) for the first, over 128 µg/mL for the second.

`CS(=O)(=O)N1CCC(c2ccn(S(N)(=O)=O)c2C(=O)O)CC1` [Example 59, 3-(1-Methylsulfonyl-4-piperidyl)-1-sulfamoyl-pyrrole-2-carboxylic acid] and `NS(=O)(=O)n1ccc(C2CC2)c1C(=O)O` [Example 55, 3-Cyclopropyl-1-sulfamoyl-1H-pyrrole-2-carboxylic acid] cannot be ordered by CC50 at 24 h: over 256 µg/mL for the first, over 256 µg/mL for the second.

Compared with `NS(=O)(=O)n1ccc(C2CCCCC2)c1C(=O)O` [Example 10, 3-Cyclohexyl-1-sulfamoyl-pyrrole-2-carboxylic acid, sodium salt], `NS(=O)(=O)n1ccc(C2CCNCC2)c1C(=O)O` [Example 57, 3-(Piperidin-4-yl)-1-sulfamoyl-1H-pyrrole-2-carboxylic acid hydrochloride] is higher in CC50 at 24 h: 145 µg/mL for the first, over 256 µg/mL for the second.

Compared with `CN(C)S(=O)(=O)N1CCC(c2ccc(-c3ccn(S(N)(=O)=O)c3C(=O)O)cc2)CC1` [Example 49, 3-[4-[1-(Dimethylsulfamoyl)piperidin-4-yl]phenyl]-1-sulfamoyl-1H-pyrrole-2-carboxylic acid], `CC(=O)N1CCC(c2ccc(-c3ccn(S(N)(=O)=O)c3C(=O)O)cc2)CC1` [Example 48, 3-[4-(1-Acetylpiperidin-4-yl)phenyl]-1-sulfamoyl-1H-pyrrole-2-carboxylic acid] is 2.4-fold higher in CC50 at 24 h: 66.4 µg/mL (≈ 145 µM) for the first, 158 µg/mL (≈ 405 µM) for the second.

`NS(=O)(=O)n1ccc(C2=CCNCC2)c1C(=O)O` [Example 38, 1-Sulfamoyl-3-(1,2,3,6-tetrahydropyridin-4-yl)-1H-pyrrole-2-carboxylic acid hydrochloride] and `NS(=O)(=O)n1ccc(-c2ccc(OC3CCNCC3)cc2)c1C(=O)O` [Example 37, 3-[4-(Piperidin-4-yloxy)phenyl]-1-sulfamoyl-1H-pyrrole-2-carboxylic acid hydrochloride] cannot be ordered by CC50 at 24 h: over 256 µg/mL for the first, over 256 µg/mL for the second.

`Cc1ccccc1-c1ccn(S(N)(=O)=O)c1C(=O)O` [Example 20, 3-(o-Tolyl)-1-sulfamoyl-pyrrole-2-carboxylic acid] and `NS(=O)(=O)n1ccc(-c2ccccc2F)c1C(=O)O` [Example 14, 3-(2-Fluorophenyl)-1-sulfamoyl-pyrrole-2-carboxylic acid] cannot be ordered by CC50 at 24 h: over 256 µg/mL for the first, over 256 µg/mL for the second.

`COc1ccc(-n2ccc(S(N)(=O)=O)c2C(=O)O)cc1` [Example 83, 1-(4-Methoxyphenyl)-3-sulfamoyl-pyrrole-2-carboxylic acid] and `Cc1ccc(-n2ccc(S(N)(=O)=O)c2C(=O)O)cc1` [Example 81, 1-(p-Tolyl)-3-sulfamoyl-pyrrole-2-carboxylic acid] cannot be ordered by CC50 at 24 h: over 256 µg/mL for the first, over 256 µg/mL for the second.

`Cc1nn(C)c(C)c1-c1ccn(S(N)(=O)=O)c1C(=O)O` [Example 7, 1-Sulfamoyl-3-(1,3,5-trimethyl-1H-pyrazol-4-yl)-1H-pyrrole-2-carboxylic acid, sodium salt] and `CN(C)S(=O)(=O)c1ccc(-c2ccn(S(N)(=O)=O)c2C(=O)O)cc1` [Example 4, 3-[4-(Dimethylsulfamoyl)phenyl]-1-sulfamoyl-1H-pyrrole-2-carboxylic acid, sodium salt] cannot be ordered by CC50 at 24 h: over 256 µg/mL for the first, over 128 µg/mL for the second.

First: NS(=O)(=O)n1ccc(-c2ccc(S(=O)(=O)N3CCNCC3)cc2)c1C(=O)O [Example 35, 3-[4-(Piperazine-1-sulfonyl)phenyl]-1-sulfamoyl-1H-pyrrole-2-carboxylic acid]
Second: CC(C)(C)OC(=O)N1CCN(S(=O)(=O)c2ccc(-c3ccn(S(N)(=O)=O)c3C(=O)O)cc2)CC1 [Example 17, 3-[4-(4-tert-Butoxycarbonylpiperazin-1-yl)sulfonylphenyl]-1-sulfamoyl-pyrrole-2-carboxylic acid, sodium salt]
The CC50 at 24 h of the first is higher: over 256 µg/mL for the first, 252 µg/mL for the second.

`NS(=O)(=O)c1ccn(-c2ccc(C3CCNCC3)cc2)c1C(=O)O` [Example 82, 1-[4-(Piperidin-4-yl)phenyl]-3-sulfamoyl-1H-pyrrole-2-carboxylic acid, sodium salt] and `NS(=O)(=O)c1ccn(-c2ccc(F)cc2)c1C(=O)O` [Example 80, 1-(4-Fluorophenyl)-3-sulfamoyl-pyrrole-2-carboxylic acid] cannot be ordered by CC50 at 24 h: over 256 µg/mL for the first, over 256 µg/mL for the second.

`NS(=O)(=O)n1ccc(-c2ccc(N3CCOCC3)nc2)c1C(=O)O` [Example 16, 3-[6-(Morpholin-4-yl)pyridin-3-yl]-1-sulfamoyl-1H-pyrrole-2-carboxylic acid] and `NS(=O)(=O)c1ccn(Cc2ccccc2)c1C(=O)O` [Example 84, 1-Benzyl-3-sulfamoyl-pyrrole-2-carboxylic acid] cannot be ordered by CC50 at 24 h: over 64 µg/mL for the first, over 256 µg/mL for the second.

Source: patent US11459296B2, “Antibacterial compounds” (INFEX Therapeutics Limited, priority 2018, dated 2022)
